# Source: US12010996B2, “Tris-substituted biguanide compounds and their uses” (priority 2018, dated 2024)
# Key:
# Experiment in all cases: Antibacterial effectiveness testing, growth inhibition in BHI broth (absorbance 600 nm)
# Conditions in all cases: 37° C., 24 h
# [1] = system: E. coli, ATCC-8739; type: cell-based
# Procedure: (§1) The antibacterial effectiveness testing was run against 7 strains of bacteria using the following protocol. Protocol: […] Bacteria (either E. coli or P. aeruginosa or S. aureus or […] or K. pneumonia or A. baumanni or C. albicans) are added to all well except the control and incubated at 37° C. for 24 h. The absorbance was read at 600 nm. MIC90 was calculated as the concentration at which 90% growth inhibition is noticed. N=4 replicates for each compound and bacteria.
# [2] = system: S. marcenes, ATCC-21639; type: cell-based
# Procedure: as §1
# [3] = system: C. albicans, ATCC1-0231; type: cell-based
# Procedure: as §1
# [4] = system: S. aeureus, ATCC 6538; type: cell-based, S. aureus
# Procedure: as §1
# [5] = system: A. baumanni-ATCC-19606; type: cell-based
# Procedure: as §1, with “protocol.” for “protocol. Protocol:”
# [6] = system: K. pneumonia, ATCC-18804; type: cell-based
# Procedure: as §1, with “protocol.” for “protocol. Protocol:”
# [7] = system: P. aeruginosa, ATCC-9027; type: cell-based
# Procedure: as §1, with “protocol.” for “protocol. Protocol:”
# [8] = * BHI not containing acetic acid/BSA, beginning 1000 μg/mL suspension
# [9] = no asterisk (BHI containing acetic acid/BSA), beginning 1000 μg/mL suspension
# [10] = no asterisk, beginning 1000 μg/mL in DMSO/Water
SMILES,"MIC90 (E. coli, ATCC-8739) [1, 8] [µg/mL]","MIC90 (E. coli, ATCC-8739) [1, 9] [µg/mL]","MIC90 (E. coli, ATCC-8739) [1, 10] [µg/mL]","MIC (S. marcenes, ATCC-21639) [2, 8] [µg/mL]","MIC (S. marcenes, ATCC-21639) [2, 9] [µg/mL]","MIC (S. marcenes, ATCC-21639) [2, 10] [µg/mL]","MIC (C. albicans, ATCC1-0231) [3, 9] [µg/mL]","MIC (C. albicans, ATCC1-0231) [3, 10] [µg/mL]","MIC (S. aeureus, ATCC 6538) [4, 8] [µg/mL]","MIC (S. aeureus, ATCC 6538) [4, 9] [µg/mL]","MIC (S. aeureus, ATCC 6538) [4, 10] [µg/mL]","MIC (A. baumanni-ATCC-19606) [5, 8] [µg/mL]","MIC (A. baumanni-ATCC-19606) [5, 9] [µg/mL]","MIC (A. baumanni-ATCC-19606) [5, 10] [µg/mL]","MIC (K. pneumonia, ATCC-18804) [6, 9] [µg/mL]","MIC (K. pneumonia, ATCC-18804) [6, 10] [µg/mL]","MIC90 (P. aeruginosa, ATCC-9027) [7, 8] [µg/mL]","MIC90 (P. aeruginosa, ATCC-9027) [7, 9] [µg/mL]","MIC90 (P. aeruginosa, ATCC-9027) [7, 10] [µg/mL]","MIC (K. pneumonia, ATCC-18804) [6, 8] [µg/mL]"
N=C(NCCN(CCNC(=N)NC(=N)Nc1ccc(Cl)cc1)CCNC(=N)NC(=N)Nc1ccc(Cl)cc1)NC(=N)Nc1ccc(Cl)cc1 [USD 18],3.12,3.15,6.25,3.12,50,12.5,6.25,3.12,0.78,0.76,0.76,3.12,6.25,0.39,12.5,6.25,6.25,0.76,0.76,
N=C(NCCN(CCNC(=N)NC(=N)Nc1ccc(C(F)(F)F)cc1)CCNC(=N)NC(=N)Nc1ccc(C(F)(F)F)cc1)NC(=N)Nc1ccc(C(F)(F)F)cc1 [USD 19],12.5,315,,3.12,100,,6.25,,3.12,1.5,,3.12,1.5,,25,,12.5,3.15,,
"Cl.Cl.N=C(NCCCCCCNC(=N)NC(=N)Nc1ccc(Cl)cc1)NC(=N)Nc1ccc(Cl)cc1 [USD 20, chlorhexidine dihydrochloride, reference compound]",0.78,,1.5,6.25,,3.25,,12.5,0.78,,0.76,25,,0.39,,3.12,25,,1.5,25
